Measured values from US20230157952A1, “METHOD FOR IMPROVING THE STABILITY OF A PHARMACEUTICAL COMPOSITION COMPRISING A HIGH PENETRATION DRUG, AND THE PHARMACEUTICAL COMPOSITION OBTAINED THEREFROM” (Techfields Inc., priority 2020, published 2023).
Each block holds one compound with its values, some of them ahead of it.

Assay: Effect of temperature (and pH) on the stability of the solution (purity)
Format: physicochemical
Settings: for Purity(%) at day 0 / Purity(%) at day 14 (5° C.) / Purity(%) at day 14 (25° C.) / Purity(%) at day 14 (40° C.) / Purity (%) at day 14 (60° C.): 7% solution in water

Purity(%) at day 0 (pH 1.0, day 0): 99.1% | Purity(%) at day 14 (5° C.) (pH 1.0, day 14, 5° C.): 90.2% | Purity(%) at day 14 (25° C.) (pH 1.0, day 14, 25° C.): 61.2% | Purity(%) at day 14 (40° C.) (pH 1.0, day 14, 40° C.): 0% | Purity (%) at day 14 (60° C.) (pH 1.0, day 14, 60° C.): 0% | Purity(%) at day 0 (pH 2.0, day 0): 99.1% | Purity(%) at day 14 (5° C.) (pH 2.0, day 14, 5° C.): 95.8% | Purity(%) at day 14 (25° C.) (pH 2.0, day 14, 25° C.): 82.7% | Purity(%) at day 14 (40° C.) (pH 2.0, day 14, 40° C.): 0% | Purity (%) at day 14 (60° C.) (pH 2.0, day 14, 60° C.): 0% | Purity(%) at day 0 (pH 3.0, day 0): 99.1% | Purity(%) at day 14 (5° C.) (pH 3.0, day 14, 5° C.): 97.5% | Purity(%) at day 14 (25° C.) (pH 3.0, day 14, 25° C.): 87.7% | Purity(%) at day 14 (40° C.) (pH 3.0, day 14, 40° C.): 2.3% | Purity (%) at day 14 (60° C.) (pH 3.0, day 14, 60° C.): 0% | Purity(%) at day 0 (pH 3.7, day 0): 99.1% | Purity(%) at day 14 (5° C.) (pH 3.7, day 14, 5° C.): 98.2% | Purity(%) at day 14 (25° C.) (pH 3.7, day 14, 25° C.): 95.5% | Purity(%) at day 14 (40° C.) (pH 3.7, day 14, 40° C.): 14.1% | Purity (%) at day 14 (60° C.) (pH 3.7, day 14, 60° C.): 0% | Purity(%) at day 0 (pH 4.0, day 0): 99.1% | Purity(%) at day 14 (5° C.) (pH 4.0, day 14, 5° C.): 98.4% | Purity(%) at day 14 (25° C.) (pH 4.0, day 14, 25° C.): 95.9% | Purity(%) at day 14 (40° C.) (pH 4.0, day 14, 40° C.): 14.3% | Purity (%) at day 14 (60° C.) (pH 4.0, day 14, 60° C.): 0% | Purity(%) at day 0 (pH 4.3, day 0): 99.1% | Purity(%) at day 14 (5° C.) (pH 4.3, day 14, 5° C.): 98.4% | Purity(%) at day 14 (25° C.) (pH 4.3, day 14, 25° C.): 95.8% | Purity(%) at day 14 (40° C.) (pH 4.3, day 14, 40° C.): 12.8% | Purity (%) at day 14 (60° C.) (pH 4.3, day 14, 60° C.): 0% | Purity(%) at day 0 (pH 4.6, day 0): 99.1% | Purity(%) at day 14 (5° C.) (pH 4.6, day 14, 5° C.): 98.3% | Purity(%) at day 14 (25° C.) (pH 4.6, day 14, 25° C.): 95.6% | Purity(%) at day 14 (40° C.) (pH 4.6, day 14, 40° C.): 3.4% | Purity (%) at day 14 (60° C.) (pH 4.6, day 14, 60° C.): 0% | Purity(%) at day 0 (pH 5.0, day 0): 99.1% | Purity(%) at day 14 (5° C.) (pH 5.0, day 14, 5° C.): 97.0% | Purity(%) at day 14 (25° C.) (pH 5.0, day 14, 25° C.): 91.0% | Purity(%) at day 14 (40° C.) (pH 5.0, day 14, 40° C.): 0.9% | Purity (%) at day 14 (60° C.) (pH 5.0, day 14, 60° C.): 0% | Purity(%) at day 0 (pH 6.0, day 0): 99.1% | Purity(%) at day 14 (5° C.) (pH 6.0, day 14, 5° C.): 91.6% | Purity(%) at day 14 (25° C.) (pH 6.0, day 14, 25° C.): 84.1% | Purity(%) at day 14 (40° C.) (pH 6.0, day 14, 40° C.): 0% | Purity (%) at day 14 (60° C.) (pH 6.0, day 14, 60° C.): 0% | Purity(%) at day 0 (pH 7.0, day 0): 99.1% | Purity(%) at day 14 (5° C.) (pH 7.0, day 14, 5° C.): 87.3% | Purity(%) at day 14 (25° C.) (pH 7.0, day 14, 25° C.): 60.3% | Purity(%) at day 14 (40° C.) (pH 7.0, day 14, 40° C.): 0% | Purity (%) at day 14 (60° C.) (pH 7.0, day 14, 60° C.): 0% | Purity(%) at day 0 (pH 8.0, day 0): 99.1% | Purity(%) at day 14 (5° C.) (pH 8.0, day 14, 5° C.): 57.3% | Purity(%) at day 14 (25° C.) (pH 8.0, day 14, 25° C.): 21.2% | Purity(%) at day 14 (40° C.) (pH 8.0, day 14, 40° C.): 0% | Purity (%) at day 14 (60° C.) (pH 8.0, day 14, 60° C.): 0%
SMILES: CCN(CC)CCOC(=O)c1cc(-c2ccc(F)cc2F)ccc1OC(C)=O.Cl

Purity (%) at day 21 (60° C.) (pH 1.02, 7% solution in water): 0% | Purity(%) at day 21 (5° C.) (pH 1.02, 7% solution in water): 93.7 ± 0.3% | Purity(%) at day 21 (25° C.) (pH 1.02, 7% solution in water): 73.0 ± 0.4% | Purity(%) at day 21 (40° C.) (pH 1.02, 7% solution in water): 18.6 ± 0.4% | Purity (%) at day 21 (60° C.) (pH 2.09, 7% solution in water): 0% | Purity(%) at day 21 (5° C.) (pH 2.09, 7% solution in water): 97.6 ± 0.4% | Purity(%) at day 21 (25° C.) (pH 2.09, 7% solution in water): 86.1 ± 0.3% | Purity(%) at day 21 (40° C.) (pH 2.09, 7% solution in water): 30.4 ± 0.3% | Purity (%) at day 21 (60° C.) (pH 3.00, 7% solution in water): 8.8 ± 0.3% | Purity(%) at day 21 (25° C.) (pH 3.00, 7% solution in water): 96.5 ± 0.4% | Purity(%) at day 21 (40° C.) (pH 3.00, 7% solution in water): 56.3 ± 0.4% | Purity (%) at day 21 (60° C.) (pH 3.68, 7% solution in water): 16.4 ± 0.4% | Purity(%) at day 21 (40° C.) (pH 3.68, 7% solution in water): 64.3 ± 0.4% | Purity (%) at day 21 (60° C.) (pH 4.07, 7% solution in water): 22.6 ± 0.4% | Purity(%) at day 21 (40° C.) (pH 4.07, 7% solution in water): 72.7 ± 0.3% | Purity (%) at day 21 (60° C.) (pH 4.35, 7% solution in water): 18.8 ± 0.2% | Purity(%) at day 21 (40° C.) (pH 4.35, 7% solution in water): 72.6 ± 0.3% | Purity (%) at day 21 (60° C.) (pH 4.67, 7% solution in water): 10.3 ± 0.3% | Purity(%) at day 21 (40° C.) (pH 4.67, 7% solution in water): 58.2 ± 0.4% | Purity (%) at day 21 (60° C.) (pH 4.95, 7% solution in water): 3.9 ± 0.3% | Purity(%) at day 21 (5° C.) (pH 4.95, 7% solution in water): 97.5 ± 0.4% | Purity(%) at day 21 (25° C.) (pH 4.95, 7% solution in water): 95.4 ± 0.4% | Purity(%) at day 21 (40° C.) (pH 4.95, 7% solution in water): 50.2 ± 0.4% | Purity (%) at day 21 (60° C.) (pH 5.98, 7% solution in water): 0% | Purity(%) at day 21 (5° C.) (pH 5.98, 7% solution in water): 96.1 ± 0.3% | Purity(%) at day 21 (25° C.) (pH 5.98, 7% solution in water): 90.7 ± 0.3% | Purity(%) at day 21 (40° C.) (pH 5.98, 7% solution in water): 29.9 ± 0.2% | Purity (%) at day 21 (60° C.) (pH 6.98, 7% solution in water): 0% | Purity(%) at day 21 (5° C.) (pH 6.98, 7% solution in water): 90.7 ± 0.4% | Purity(%) at day 21 (25° C.) (pH 6.98, 7% solution in water): 78.6 ± 0.4% | Purity(%) at day 21 (40° C.) (pH 6.98, 7% solution in water): 19.7 ± 0.4% | Purity (%) at day 21 (60° C.) (pH 8.01, 7% solution in water): 0% | Purity(%) at day 21 (5° C.) (pH 8.01, 7% solution in water): 81.6 ± 0.5% | Purity(%) at day 21 (25° C.) (pH 8.01, 7% solution in water): 52.5 ± 0.5% | Purity(%) at day 21 (40° C.) (pH 8.01, 7% solution in water): 0%
SMILES: CCN(CC)CCOC(=O)C(C)c1ccc(CC(C)C)cc1.Cl (racemic)
